Reference: patent US10471046B2, “Method for treating, preventing, or reducing the risk of skin infection” (Melinta Subsidiary Corp., priority 2014, dated 2019)
≈ marks a conversion by molar mass, not a printed value.

Tested on: S. aureus
Experiment: Minimum inhibitory concentrations (MICs) for S. aureus of exemplary compounds (Table 2)
Assay type: cell-based
Conditions: Staphylococcus aureus, minimum inhibitory concentrations for S. aureus; read-out: MICs
Source text: Exemplary compounds in accordance with the invention are listed in Table 2 with their minimum inhibitory concentrations (MICs) (μg/mL) for S. aureus:
Furthermore, the antibiotic compounds can be assayed for anti-proliferative or anti-infective properties on a cellular level. For example, where the target organism is a microorganism, the activity of compounds of interest can be assayed by growing the microorganisms of interest in media either containing or lacking the compound. Growth inhibition can be indicative that the molecule could be acting as a protein synthesis inhibitor. […] For this purpose, a panel of bacterial strains can be assembled to include a variety of target pathogenic species, some containing resistance mechanisms that have been characterized. Use of such a panel of organisms permits the determination of structure-activity relationships not only in regards to potency and spectrum, but also with a view to obviating resistance mechanisms. The assays can be performed in microtiter trays according to conventional methodologies as published by The National Committee for Clinical Laboratory Standards (NCCLS) guidelines (NCCLS. M7-A5-Methods for Dilution Antimicrobial Susceptibility Tests for Bacteria That Grow Aerobically; Approved Standard-Fifth Edition. NCCLS Document M100-S12/M7 (ISBN 1-56238-394-9)).

SMILES | MIC [µg/mL]
CC(=O)NC[C@H]1CN(c2ccc(-c3ccc(Cn4cccn4)cc3)c(F)c2)C(=O)O1 [Compound 1043, N-[3-(2-Fluoro-4′-pyrazol-1-ylmethyl-biphenyl-4-yl)-2-oxo-oxazolidin-5-(S)-ylmethyl]-acetamide] | 0.25 (≈ 0.612 µM)
CC(=O)NC[C@H]1CN(c2ccc(-c3ccc([C@H](O)CN(CCS(C)(=O)=O)Cc4ccccc4)cc3)c(F)c2)C(=O)O1 [Compound 4286, N-[3-(4′-{2-[Benzyl-(2-methanesulfonyl-ethyl)-amino]-1-(S)-hydroxy-ethyl}-2-fluoro-biphenyl-4-yl)-2-oxo-oxazolidin-5-(S)-ylmethyl]-acetamide] | 2 (≈ 3.43 µM)
CC(=O)NC[C@H]1CN(c2ccc(-c3ccc(CNCc4cocn4)nc3)c(F)c2)C(=O)O1 [Compound 4235, N-{3-[3-Fluoro-4-(6-{[(oxazol-4-ylmethyl)-amino]-methyl}-pyridin-3-yl)-phenyl]-2-oxo-oxazolidin-5-(S)-ylmethyl}-acetamide] | 2 (≈ 4.55 µM)
CC(=O)NC[C@H]1CN(c2ccc(-c3ccc(C(=O)NCc4nccs4)cc3)c(F)c2)C(=O)O1 [Compound 4143, 4′-[5-(S)-(Acetylamino-methyl)-2-oxo-oxazolidin-3-yl]-2′-fluoro-biphenyl-4-carboxylic acid (thiazol-2-ylmethyl)-amide] | 1 (≈ 2.13 µM)
COc1cc(CNCc2ccncc2)ccc1-c1ccc(N2C[C@H](CNC(C)=O)OC2=O)cc1F [Compound 4027, N-[3-(2-Fluoro-2′-methoxy-4′-{[(pyridin-4-ylmethyl)-amino]-methyl}-biphenyl-4-yl)-2-oxo-oxazolidin-5-(S)-ylmethyl]-acetamide] | 8 (≈ 16.7 µM)
CC(=O)NC[C@H]1CN(c2ccc(-c3ccc([C@H](CO)NCc4c(C)nc(O)nc4O)cc3)c(F)c2)C(=O)O1 [Compound 4030, N-[3-(4′-{1-(R)-[(2,4-Dihydroxy-6-methyl-pyrimidin-5-ylmethyl)-amino]-2-hydroxy-ethyl}-2-fluoro-biphenyl-4-yl)-2-oxo-oxazolidin-5-(S)-ylmethyl]-acetamide] | 64 (≈ 122 µM)
CC(=O)NC[C@H]1CN(c2ccc(-c3ccc(CN(C)Cc4cnc[nH]4)cc3)c(F)c2)C(=O)O1 [Compound 4067, N-[3-(2-Fluoro-4′-{[(3H-imidazol-4-ylmethyl)-methyl-amino]-methyl}-biphenyl-4-yl)-2-oxo-oxazolidin-5-(S)-ylmethyl]-acetamide] | 4 (≈ 8.86 µM)
CC(=O)NC[C@H]1CN(c2ccc(-c3cc(C)c(CNCc4ccncc4)cc3C)c(F)c2)C(=O)O1 [Compound 4176, N-[3-(2-Fluoro-2′,5′-dimethyl-4′-{[(pyridin-4-ylmethyl)-amino]-methyl}-biphenyl-4-yl)-2-oxo-oxazolidin-5-(S)-ylmethyl]-acetamide] | 128 (≈ 269 µM)
CC(=O)NC[C@H]1CN(c2ccc(-c3ccc(Cc4nnn[nH]4)cc3)c(F)c2)C(=O)O1 [Compound 1007, N-{3-[2-Fluoro-4′-(1H-tetrazol-5-(S)-ylmethyl)-biphenyl-4-yl]-2-oxo-oxazolidin-5-(S)-ylmethyl}-acetamide] | 8 (≈ 19.5 µM)
CC(=O)NC[C@H]1CN(c2ccc(-c3ccc(CNC(=O)c4csc(NCc5ccc(Cl)cc5)n4)cc3)c(F)c2)C(=O)O1 [Compound 4207, 2-(4-Chloro-benzylamino)-thiazole-4-carboxylic acid {4′-[5-(S)-(acetylamino-methyl)-2-oxo-oxazolidin-3-yl]-2′-fluoro-biphenyl-4-ylmethyl}-amide] | 2 (≈ 3.29 µM)
CC(=O)NC[C@H]1CN(c2ccc(-c3ccc(C(C)NCc4nccs4)cc3)c(F)c2)C(=O)O1 (mixture of isomers) [Compound 4145, N-[3-(2-Fluoro-4′-{1-(R/S)-[(thiazol-2-ylmethyl)-amino]-ethyl}-biphenyl-4-yl)-2-oxo-oxazolidin-5-(S)-ylmethyl]-acetamide] | 2
CC(=O)NC[C@H]1CN(c2ccc(-c3ccc(C[S+]([O-])c4nccs4)cc3)c(F)c2)C(=O)O1 (stereo partly drawn) [Compound 2036, N-{3-[2-Fluoro-4′-(thiazole-2-sulfinylmethyl)-biphenyl-4-yl]-2-oxo-oxazolidin-5-(S)-ylmethyl}-acetamide] | 1 (≈ 2.11 µM)
CC(=O)NC[C@H]1CN(c2ccc(-c3ccc(C[S+]([O-])c4ncc[nH]4)cc3)c(F)c2)C(=O)O1 (stereo partly drawn) [Compound 2038, N-{3-[2-Fluoro-4′-(1H-imidazole-2-sulfinylmethyl)-biphenyl-4-yl]-2-oxo-oxazolidin-5-(S)-ylmethyl}-acetamide] | 2 (≈ 4.38 µM)
CC(=O)NC[C@H]1CN(c2ccc(-c3ccc(CN(Cc4nnnn4C)C(=O)OC(C)(C)C)cc3)c(F)c2)C(=O)O1 [Compound 4280, {4′-[5-(S)-(Acetylamino-methyl)-2-oxo-oxazolidin-3-yl]-2′-fluorobiphenyl-4-ylmethyl}-(1-methyl-1H-tetrazol-5-ylmethyl)-carbamic acid tert-butyl ester] | 1 (≈ 1.81 µM)
CC(=O)NC[C@H]1CN(c2ccc(-c3ccc([C@H](O)Cn4ccnc4)cc3)c(F)c2)C(=O)O1 [Compound 1046, N-{3-[2-Fluoro-4′-(1-(S)-hydroxy-2-imidazol-1-yl-ethyl)-biphenyl-4-yl]-2-oxo-oxazolidin-5-(S)-ylmethyl}-acetamide] | 1 (≈ 2.28 µM)
CC(=O)NC[C@H]1CN(c2ccc(-c3ccc(C[S+]([O-])Cc4ccncc4)cc3)c(F)c2)C(=O)O1 (stereo partly drawn) [Compound 4212, N-{3-[2-Fluoro-4′-(pyridin-4-ylmethanesulfinylmethyl)-biphenyl-4-yl]-2-oxo-oxazolidin-5-(S)-ylmethyl}-acetamide] | 0.25 (≈ 0.519 µM)
CC(=O)NC[C@H]1CN(c2ccc(-c3ccc(CNC(=O)[C@@H]4C=CCN4C(=O)OC(C)(C)C)cc3)c(F)c2)C(=O)O1 [Compound 4305, 2-({4′-[5-(S)-(Acetylamino-methyl)-2-oxo-oxazolidin-3-yl]-2′-fluoro-biphenyl-4-ylmethyl}-carbamoyl)-2,5-dihydro-pyrrole-1-(S)-carboxylic acid tert-butylester] | 16 (≈ 29 µM)
CC(=O)NC[C@H]1CN(c2ccc(-c3ccc(CNCCCc4cnn[nH]4)cc3)c(F)c2)C(=O)O1 [Compound 4258, N-[3-(2-Fluoro-4′-{[3-(3H-[1,2,3]triazol-4-yl)-propylamino]-methyl}-biphenyl-4-yl)-2-oxo-oxazolidin-5-(S)-ylmethyl]-acetamide] | 4 (≈ 8.57 µM)
CC(=O)NC[C@H]1CN(c2ccc(-c3ccc(CNCCN4CCOCC4)cc3)c(F)c2)C(=O)O1 [Compound 4318, N-(3-{2-Fluoro-4′-[(2-morpholin-4-yl-ethylamino)-methyl]-biphenyl-4-yl}-2-oxo-oxazolidin-5-(S)-ylmethyl)-acetamide] | 16 (≈ 34 µM)

The remaining lines, values ahead:

MIC [µg/mL] | SMILES
1 (≈ 2.02 µM) | CC(=O)NC[C@H]1CN(c2ccc(-c3ccc(CNCCSc4ccccn4)cc3)c(F)c2)C(=O)O1 [Compound 5004, N-[3-(2-Fluoro-4′-{[2-(pyridin-2-ylsulfanyl)-ethylamino]-methyl}-biphenyl-4-yl)-2-oxo-oxazolidin-5-(S)-ylmethyl]-acetamide]
0.5 (≈ 1 µM) | CC(=O)NC[C@H]1CN(c2ccc(-c3ccc(CNCc4ccc5ccccc5n4)cc3)c(F)c2)C(=O)O1 [Compound 4019, N-[3-(2-Fluoro-4′-{[(quinolin-2-ylmethyl)-amino]-methyl}-biphenyl-4-yl)-2-oxo-oxazolidin-5-(S)-ylmethyl]-acetamide]
2 (≈ 3.77 µM) | CC(=O)NC[C@H]1CN(c2ccc(-c3ccc(CNCc4nn(C)cc4Br)cc3)c(F)c2)C(=O)O1 [Compound 4168, N-[3-(4′-{[(4-Bromo-1-methyl-1H-pyrazol-3-ylmethyl)-amino]-methyl}-2-fluoro-biphenyl-4-yl)-2-oxo-oxazolidin-5-(S)-ylmethyl]-acetamide]
64 (≈ 142 µM) | CC(=O)NC[C@H]1CN(c2ccc(-c3ccc(CNCc4ccncc4)cn3)c(F)c2)C(=O)O1 [Compound 4052, N-{3-[3-Fluoro-4-(5-{[(pyridin-4-ylmethyl)-amino]-methyl}-pyridin-2-yl)-phenyl]-2-oxo-oxazolidin-5-(S)-ylmethyl}-acetamide]
0.25 (≈ 0.501 µM) | CC(=O)NC[C@H]1CN(c2ccc(-c3ccc(CNCc4cnc5ccccc5c4)cc3)c(F)c2)C(=O)O1 [Compound 4021, N-[3-(2-Fluoro-4′-{[(quinolin-3-ylmethyl)-amino]-methyl}-biphenyl-4-yl)-2-oxo-oxazolidin-5-(S)-ylmethyl]-acetamide]
8 (≈ 15 µM) | CC(=O)NC[C@H]1CN(c2ccc(-c3ccc(CNCc4ccc(N5CCOCC5)nc4)cc3)c(F)c2)C(=O)O1 [Compound 4118, N-[3-(2-Fluoro-4′-{[(6-morpholin-4-yl-pyridin-3-ylmethyl)-amino]-methyl}-biphenyl-4-yl)-2-oxo-oxazolidin-5-(S)-ylmethyl]-acetamide]
32 (≈ 62.4 µM) | CC(=O)NC[C@H]1CN(c2ccc(-c3ccc(CNC(=O)c4cnc5ccccc5c4)cc3)c(F)c2)C(=O)O1 [Compound 4009, Quinoline-3-carboxylic acid {4′-[5-(S)-(acetylamino-methyl)-2-oxo-oxazolidin-3-yl]-2′-fluoro-biphenyl-4-ylmethyl}-amide]
2 (≈ 4.1 µM) | CC(=O)NC[C@H]1CN(c2ccc(-c3ccc(CNCc4cc5ccccc5o4)cc3)c(F)c2)C(=O)O1 [Compound 4020]
4 (≈ 9.72 µM) | CC(=O)NC[C@H]1CN(c2ccc(-c3ccc(CNCC4CC4)cc3)c(F)c2)C(=O)O1 [Compound 4300, N-(3-{4′-[(Cyclopropylmethyl-amino)-methyl]-2-fluoro-biphenyl-4-yl}-2-oxo-oxazolidin-5-(S)-ylmethyl)-acetamide]
